According to US5488060A, “Substituted thiadiazoles, compositions containing them and their use as antimicrobial and marine antifouling agents” (The Dow Chemical Company, priority 1994, dated 1996):
Converted amounts (≈) assume the structure as drawn. Read-outs that look alike come from different tables or passages of the source.

Legend:
marine organisms = assay: Marine antifouling rating of coated test panels exposed to the marine environment; conditions: scale 10 (completely free of growth) to 0 (completely covered); for Marine Antifouling Rating, 6 Week Test, Top Panel / Marine Antifouling Rating, 6 Week Test, Bottom Panel: 6 weeks; for Marine Antifouling Rating, 6 Week Test, Top Panel / Marine Antifouling Rating, 10 Week Test, Top Panel: topside; for Marine Antifouling Rating, 6 Week Test, Bottom Panel / Marine Antifouling Rating, 10 Week Test, Bottom Panel: underside; for Marine Antifouling Rating, 10 Week Test, Top Panel / Marine Antifouling Rating, 10 Week Test, Bottom Panel: 10 weeks
Description: Test panels are prepared from clear, rigid polyvinyl chloride film that is 0.381×10-3 m thick and has one textured surface. The test panels are 0.1524 m by 0.1524 m squares that have 0.00635 m holes punched at corners on 0.127 m centers. A 0.102 square template, with a 0.067 m diameter hole at the center, is attached to the center of the textured surface of the test panels.
A candidate marine antifoulant compound (1.0 g) is stirred into a resinous latex binder (9.0 g). A portion of the compound/binder mixture (1.5 g) is added to the center of the test panel and uniformly spread over the circular area inside the template.
Water is added dropwise as needed to properly spread the compound/binder mixture. The template prevents the compound/binder mixture from spreading beyond the uncovered area. […] The template is then removed. The test panel is then allowed to dry for 8 to 12 hours at room temperature.
Two test panels are prepared for each candidate marine antifoulant compound. Two control test panels are also prepared by only treating with the resinous latex binder. One test panel of each candidate marine […] compound is attached over a white background to the topside of an exposure support apparatus. The second test panel is attached over a black background to the underside of the exposure support apparatus. The exposure support apparatus is placed horizontally 0.0254 m under a marine surface with the white background topside facing up.
After being removed from the exposure support apparatus, each test panel is inspected and rated for marine organism growth on both the treated and untreated areas of the test panel, The marine organisms present on the treated and untreated areas are noted. The presence of algae spores and bacterial slime are noted but not included in rating each test panel. The test panels are rated on a scale from 10 (representing completely free of marine organism growth) to 0 (representing completely covered with marine organism growth).
In addition, test panels were prepared using tributyl tin oxide, a known marine antifouling compound.

Escherichia coli (Ec) = assay: Minimum inhibitory concentration (MIC) in nutrient agar, Escherichia coli; format: cell-based
How it was run: (§1)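 MIC is determined by agar incorporation into neutral and alkaline nutrient agar, with compound at final 500 to 1.0 ppm added from a 1% acetone–water solution. Plates are inoculated with 10^8 CFU/mL cultures and read after 48 h at 30° C.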

[1] = system: Enterobacter aerogenes (Ea); assay: Minimum inhibitory concentration (MIC) in nutrient agar, Enterobacter aerogenes; format: cell-based; conditions: Klebsiella aerogenes
How it was run: as §1

Proteus vulgaris (Pv) = assay: Minimum inhibitory concentration (MIC) in nutrient agar, Proteus vulgaris; format: cell-based
How it was run: as §1

[2] = system: Aureobasidium pullulan (Ap); assay: Minimum inhibitory concentration (MIC) in malt yeast agar, Aureobasidium pullulan; format: cell-based
How it was run: (§2)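 Growth is scored at 30 °C after 72 h for fungi and 48 h for yeast on malt yeast agar (pH 5.5) containing compound at final levels from 500 down to zero ppm. Organisms are grown 7 days at 30 °C, suspended in saline with octylphenoxy polyethoxy ethanol, and diluted 1:9 before replicator inoculation.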

[3] = system: Klebsiella pneumoniae (Kp); assay: Minimum inhibitory concentration (MIC) in nutrient agar, Klebsiella pneumoniae; format: cell-based
How it was run: as §1

[4] = system: Pseudomonas aeruginosa (PRD-10); assay: Minimum inhibitory concentration (MIC) in nutrient agar, Pseudomonas aeruginosa PRD-10; format: cell-based
How it was run: as §1

[5] = system: Salmonella choleraesuis (Se); assay: Minimum inhibitory concentration (MIC) in nutrient agar, Salmonella choleraesuis; format: cell-based; conditions: Salmonella enterica
How it was run: as §1

Candida albicans (Ca) = assay: Minimum inhibitory concentration (MIC) in malt yeast agar, Candida albicans; format: cell-based
How it was run: as §2

[6] = system: Staphylococcus aureus (Sa); assay: Minimum inhibitory concentration (MIC) in nutrient agar, Staphylococcus aureus; format: cell-based
How it was run: as §1

[7] = 48 h, pH 8.2, read-out: Minimum Inhibitory Concentration, Ea
[8] = pH 6.8, nutrient agar, 30° C., 48 hours, read-out: Minimum Inhibitory Concentration, Pv
[9] = pH 6.8, nutrient agar, 30° C., 48 hours, read-out: Minimum Inhibitory Concentration, Kp
[10] = 48 h, pH 8.2, read-out: Minimum Inhibitory Concentration, PRD
[11] = pH 6.8, nutrient agar, 30° C., 48 hours, read-out: Minimum Inhibitory Concentration, SC
[12] = pH 6.8, nutrient agar, 30° C., 48 hours, read-out: Minimum Inhibitory Concentration, Sa

SMILES: N#CSc1nsnc1-c1ccccc1 [Example I, 4-Phenyl-3-thiocyanato-1,2,5-thiadiazole]
- Marine Antifouling Rating, 6 Week Test, Top Panel (marine organisms): 7
- Marine Antifouling Rating, 6 Week Test, Bottom Panel (marine organisms): 7
- Marine Antifouling Rating, 10 Week Test, Top Panel (marine organisms): 4
- Marine Antifouling Rating, 10 Week Test, Bottom Panel (marine organisms): 3
- MIC (Escherichia coli (Ec); 48 h, pH 6.8, read-out: Minimum Inhibitory Concentration, Ec): 50 µg/mL (≈ 228 µM)
- MIC (Escherichia coli (Ec); 48 h, pH 8.2, read-out: Minimum Inhibitory Concentration, Ec): > 500 µg/mL
- MIC [1, 7]: 500 µg/mL (≈ 2280 µM)
- MIC ([1]; pH 6.8, nutrient agar, 30° C., 48 hours, read-out: Minimum Inhibitory Concentration, Ea): 100 µg/mL (≈ 456 µM)
- MIC (Proteus vulgaris (Pv); 48 h, pH 8.2, read-out: Minimum Inhibitory Concentration, Pv): 500 µg/mL (≈ 2280 µM)
- MIC (Proteus vulgaris (Pv); [8]): 50 µg/mL (≈ 228 µM)
- MIC ([2]; pH 5.5, malt yeast agar, 30° C., read-out: Minimum Inhibitory Concentration, Ap): < 1 µg/mL
- MIC ([3]; 48 h, pH 8.2, read-out: Minimum Inhibitory Concentration, Kp): 500 µg/mL (≈ 2280 µM)
- MIC [3, 9]: 25 µg/mL (≈ 114 µM)
- MIC ([4]; 48 h, pH 6.8, read-out: Minimum Inhibitory Concentration, PRD): > 500 µg/mL
- MIC [4, 10]: > 500 µg/mL
- MIC ([5]; 48 h, pH 8.2, read-out: Minimum Inhibitory Concentration, SC): > 500 µg/mL
- MIC [5, 11]: 50 µg/mL (≈ 228 µM)
- MIC (Candida albicans (Ca); 48 h, pH 5.5, read-out: Minimum Inhibitory Concentration, Ca): 2.5 µg/mL (≈ 11.4 µM)
- MIC ([6]; 48 h, pH 8.2, read-out: Minimum Inhibitory Concentration, Sa): 500 µg/mL (≈ 2280 µM)
- MIC [6, 12]: 25 µg/mL (≈ 114 µM)

SMILES: N#CSCSc1nsnc1-c1ccccc1 [Example XVI, 4-Phenyl-3-thiocyanato-methylthio-1,2,5-thiadiazole]
- Marine Antifouling Rating, 6 Week Test, Top Panel (marine organisms): 9
- Marine Antifouling Rating, 6 Week Test, Bottom Panel (marine organisms): 9
- Marine Antifouling Rating, 10 Week Test, Top Panel (marine organisms): 4
- Marine Antifouling Rating, 10 Week Test, Bottom Panel (marine organisms): 9
- MIC (Escherichia coli (Ec); pH 6.8, nutrient agar, 30° C., 48 hours, read-out: Minimum Inhibitory Concentration, Ec): 25 µg/mL (≈ 94.2 µM)
- MIC (Escherichia coli (Ec); pH 8.2, nutrient agar, 30° C., 48 hours, read-out: Minimum Inhibitory Concentration, Ec): 250 µg/mL (≈ 942 µM)
- MIC ([1]; 48 h, pH 6.8, read-out: Minimum Inhibitory Concentration, Ea): 50 µg/mL (≈ 188 µM)
- MIC [1, 7]: 500 µg/mL (≈ 1880 µM)
- MIC (Proteus vulgaris (Pv); [8]): 50 µg/mL (≈ 188 µM)
- MIC (Proteus vulgaris (Pv); pH 8.2, nutrient agar, 30° C., 48 hours, read-out: Minimum Inhibitory Concentration, Pv): 250 µg/mL (≈ 942 µM)
- MIC ([2]; pH 5.5, read-out: Minimum Inhibitory Concentration, Ap): 2.5 µg/mL (≈ 9.42 µM)
- MIC [3, 9]: 25 µg/mL (≈ 94.2 µM)
- MIC ([3]; pH 8.2, nutrient agar, 30° C., 48 hours, read-out: Minimum Inhibitory Concentration, Kp): 100 µg/mL (≈ 377 µM)
- MIC [4, 10]: 50 µg/mL (≈ 188 µM)
- MIC ([4]; pH 6.8, nutrient agar, 30° C., 48 hours, read-out: Minimum Inhibitory Concentration, PRD): 25 µg/mL (≈ 94.2 µM)
- MIC [5, 11]: 25 µg/mL (≈ 94.2 µM)
- MIC ([5]; pH 8.2, nutrient agar, 30° C., 48 hours, read-out: Minimum Inhibitory Concentration, SC): 250 µg/mL (≈ 942 µM)
- MIC (Candida albicans (Ca); pH 5.5, malt yeast agar, 30° C., 48 hours for yeast, read-out: Minimum Inhibitory Concentration, Ca): 5 µg/mL (≈ 18.8 µM)
- MIC [6, 12]: 25 µg/mL (≈ 94.2 µM)
- MIC ([6]; pH 8.2, nutrient agar, 30° C., 48 hours, read-out: Minimum Inhibitory Concentration, Sa): 50 µg/mL (≈ 188 µM)
